This is an account of results in article PMC7377239, “Cardiovascular Effects of Polychlorinated Biphenyls and Their Major Metabolites” (Environmental Health Perspectives, 2020).

The subject of one assay is HUVECs. The experiment in a line: High-content imaging cytotoxicity in HUVECs, 24 h. In kind it is cell-based, human. The following applies: Homo sapiens, HUVEC, 24 h, HUVEC, 24 hr. The procedure:
Similar to the cultivation of iCell®-endothelial cells, HUVEC maintenance and experimentation are detailed elsewhere ([Iwata et al. 2017]). Briefly, HUVECs were thawed, seeded, and grown in T75 tissue culture flasks in Medium 199 with EGM™-2 BulletKits™. HUVECs were incubated at regular cell culture conditions, 37°C and 5% CO2 , and passaged every 2–3 d using TrypLE™ Express. To ensure adequate endothelial function, experiments were performed with cells between passages 1 and 5.
(§1) Cytotoxicity was assessed in parallel experiments. For iCell®-endothelial cells, 384-well plates were coated with a 30μg/mL fibronectin solution ( 10μL/well ) and incubated for 2 h at RT. iCell®-endothelial cells were dissociated with TrypLE™ Express and prepared into a solution to achieve 750 cells per well and 50μL of total volume. The fibronectin solution was removed from the 384-well plate, and cells were plated. For HUVECs, similar dissociation and the same cell density were used for plating with the exclusion of the fibronectin solution. Cells were incubated at 37°C and 5% CO2 until a monolayer was formed, typically 3–5 d. 2×PCB plates were created with the requisite maintenance medium. Before treatment, the medium in the wells was exchanged to 25μL/well of fresh maintenance medium. 2×PCB chemical solutions ( […] ) were added. After 24 h incubation at 37°C and 5% CO2 , cells were stained with Hoechst 33342, MitoTracker™ Orange, and calcein AM for 20 min before replacing the staining media with FluoroBright DMEM. Cell culture plates were imaged using the ImageXpress® Micro Confocal high-content imaging system (Molecular Devices). Images were acquired at 10× magnification with DAPI, TRITC, or FITC filter (Hoechst 33342, MitoTracker™, or calcein AM, respectively). The multiwavelength cell scoring applications module in MetaXpress™ (Molecular Devices) was used to analyze the images.
(§2) Phenotypic responses were quantitatively assessed using concentration–response modeling as detailed elsewhere ([Sirenko et al. 2017]). Briefly, phenotypic readouts were normalized to vehicle controls and fit to a four-parameter logistic model in R studio software (version 3.1.1; R Development Core Team). Following EPA guidance on dose–response modeling, a cutoff of one standard deviation across means of vehicle control (i.e., 0.5% vol/vol DMSO in cell culture media) wells was applied to determine the point-of-departure (POD) values ([U.S. EPA 2012]). In the absence of a concentration–response, the highest tested concentration (i.e., 100μM ) was assigned as “no observable adverse effect level.” The concentration–response assessment R script, as well as templates for vehicle and concentration–response data, are available as a supplement to Sirenko et al. ([2017]). The ability of physicochemical properties to predict differences in PODs were evaluated by multiregression and mixed-effects modeling using R.

The subject of assay [1] is iCell endothelial cells (human iPSC-derived ECs). The experiment in a line: High-content imaging cytotoxicity in iCell endothelial cells, 24 h. The following applies: Homo sapiens, Endothelial cell, endothelial cells (endo), 24 hr. In kind it is cell-based. The procedure:
The culture conditions of iCell®-endothelial cells were as reported elsewhere ([Iwata et al. 2017]). Briefly, T75 flasks were coated with a fibronectin solution ( 3 μg/cm^2 ) followed by incubation for 1–2 h. Cells were thawed for 3 min in a 37°C water bath. Thawed cells were added to maintenance medium made of VascuLife VEGF Medium Complete Kit, excluding the supplied FBS, and iCell® Endothelial Cells Medium Supplement. The final formulation of the maintenance medium is detailed in ([Iwata et al. 2017]). The aliquoted fibronectin solution was aspirated from the T75 flasks, and cells were seeded at 1.0×10^4 cells/cm^2 . Cells were maintained at 37°C and 5% CO2 with media changes occurring every 2 d and passaged every 3–4 d using TrypLE™ Express. All experiments were conducted on cells between passages 1 and 5.
as §1, §2

Like-named read-outs stand apart in the source and are kept apart here.

Regarding `Oc1ccc(O)c(-c2ccc(Cl)cc2)c1` [2',5'-diOH-PCB 3, 4-Chloro-2′,5′-dihydroxybiphenyl], the minimal effective concentration in the assay with HUVECs (cyto, read-out: POD huvec.cyto.24hr) was 0.12 µM; in the assay on HUVECs (mito, read-out: POD huvec.mito.24hr), 0.13 µM; in the assay on HUVECs (mitoint, read-out: POD huvec.mitoint.24hr), 3.51 µM; in the assay on HUVECs (nma, read-out: POD huvec.nma.24hr), 8.87 µM; in the assay with HUVECs (tc, read-out: POD huvec.tc.24hr) it was 0.12 µM; in assay [1] (cyto, read-out: POD endo.cyto.24hr) it was 6.71 µM. For the same molecule, the minimal effective concentration came out at 6.71 µM in assay [1] (mito, read-out: POD endo.mito.24hr); 44.6 µM in assay [1] (mitoint, read-out: POD endo.mitoint.24hr); 13.7 µM in assay [1] (nma, read-out: POD endo.nma.24hr); 5.78 µM in assay [1] (tc, read-out: POD endo.tc.24hr).
